# Assay results published in US20260265771A1, “METHODS OF INCREASING THE REGENERATION EFFICIENCY IN PLANTS” (Institute of Genetics and Developmental Biology Chinese …, priority 2022, published 2026).
# Where “and” joins values, the source holds several entries; their conditions need not be identical. Equal values may be shown once. Entries after “also recorded” stand apart in the source; their conditions may differ.
# Columns and labels:
# soybean explants = test: Shoot regeneration of soybean explants; type: cell-based, Glycine max
# Protocol: The relative regeneration capacity was represented by the relative frequency of explants with the regenerated shoots. Data are mean±SD of three independent experiments. Bars show mean±SD. ***P<0.001, **P<0.01, *P<0.05 (Student's t-test).
# Soybean explants were cultured on medium containing indicated concentrations of REF1. Shoot regeneration was scored 21 days after incubation.
# recalcitrant soybean = test: Regeneration frequency / transformation efficiency of recalcitrant soybean; type: cell-based; conditions: 100 nM GmREF1 vs control in absence of GmREF1
# Protocol: (a) photos of control recalcitrant soybean and PRR+RER overexpressing (OE) recalcitrant soybean grown in the presence of 50 nM gmREF1, 100 nM GmREF1 or a vehicle only control (mock). (b) relative regeneration frequency of control recalcitrant soybean and PRR+RER overexpressing (OE) recalcitrant soybean grown in the presence of 50 nM GmREF1, 100 nM GmREF1 or a absence of REF1 (mock).
# [1] = test system: Williams 82 soybean cultivar; test: Transformation efficiency of soybean (reporter gene A); type: cell-based
# Protocol: By “transformation efficiency” is meant the capacity of an organism to take up and incorporate exogenous DNA such as plasmids during transformation. Transformation efficiency is calculated by dividing the number of transformants by the total number of organisms subjected to the transformation process and multiplying this by 100 to obtain a percentage.
# The soybean gene A was transformed into the Williams 82 soybean cultivar and treated with 100 nM GmREF1 or a control. Gene A is a transcription factor gene which is used as a reporter for transformation efficiency. […]
# cucumber leaf explants = test: Shoot regeneration of cucumber leaf explants; type: cell-based; conditions: 10 nM CsREF1 vs untreated control explants, 21 d
# Protocol: FIG. 46—Leaf explants were cultured on medium containing indicated concentrations of CsREF1. Shoot regeneration was scored at 21 d after incubation. The shoot regenerative capacity was represented by the number of regenerated shoots per explant. Data are mean±SD of three independent experiments. Bars show mean±SD. ***P<0.001, **P<0.01, *P<0.05 (Student's t-test).
# Leaf explants were cultured on a medium containing 10 nM CsREF1.
# [2] = 100 nM GmREF1, three experiments
Sequence,"relative regeneration frequency, increase (soybean explants; 10 nM GmREF1 vs absence)","relative regeneration frequency, increase (soybean explants; 20 nM GmREF1 vs absence)","relative regeneration frequency, increase (soybean explants; 50 nM GmREF1 vs absence)",shoot regeneration / regenerative capacity (soybean explants; presence vs absence of GmREF1),"regeneration frequency, increase (recalcitrant soybean)","Regenerated shoots carrying the reporter gene [1, 2]","Transformation efficiency (%) [1, 2]",transformation efficiency ([1]; 100 nM GmREF1 vs control),shoot regenerative capacity (cucumber leaf explants)
GSVVVLQTKRKHDGGKGRDPQTN (Glycine max) [GmREF1],~ 2.1 fold,~ 2.8 fold,~ 3.8 fold,increases the regenerative capacity; also recorded: promotes shoot regeneration,~ 12 fold,177 and 156 and 200,64.1% and 73.9% and 72.9%,improves transformation efficiency; also recorded: greater,
YKLEGELQKRFEDLLKTTTDNDIPRGGNY (listed as Cucumis sativus) [CsREF1],,,,,,,,,significantly increased
